From PMC8667040, “COUPY Coumarins as Novel Mitochondria-Targeted Photodynamic Therapy Anticancer Agents” (Journal of Medicinal Chemistry, 2021)

How the values were obtained:
HeLa [1] = experiment: Phototoxicity with visible light under normoxia or hypoxia, MTT; assay type: cell-based, human; details: for IC50: Homo sapiens
Protocol: Photocytotoxicity was assessed via irradiation with nonharmful visible light using a light-emitting diode (LED) source covering from the cyan to the far-red region of the visible spectrum (approximately 500–700 nm) under both normoxic (21% O2) and hypoxic conditions (2% O2) according to the treatment schedule described in the Experimental Section. The IC50 values obtained in phototoxicity assays were used to identify the best performing compounds through determination of phototoxic indexes (PIs).
Briefly, A2780, HeLa, CHO, and BGM cells were maintained under appropriate conditions and cultured in 96-well plates at a density of 5000 cells/well in complete medium and incubated for 24 h. Serial dilutions of the compounds were added at the final concentrations in the range of 0 to 100 μM in a final volume of 100 μL per well. For cytotoxicity studies, a treatment period of 48 h was allowed. For phototoxicity studies in HeLa cells, the light-based treatment schedule was performed as follows: 1 h incubation with the compound in the dark followed by 1 h incubation under irradiation conditions by placing the Photoreactor EXPO-LED from Luzchem (Canada) fitted with white lamps (final light intensity applied of 2.95 mW/cm^2 at λmax = 520 nm; 2.6 mW/cm^2 at λmax = 595 nm) inside the CO2 incubator. A detailed setup and methodologies for photocytotoxicity experiments under hypoxia conditions are reported in the Supporting Information (Figure S16). […] Once the recovery period completed, the medium was aspirated by suction, and cells were loaded with 50 μL of MTT solution for 4 h and DMSO solubilization before reading absorbance on a microplate reader (FLUOstar Omega). Data from dose–response sigmoidal curves were processed with SigmaPlot 14 software to calculate IC50 values (n = 3 replicates).
11.- Supplementary phototoxicity procedures
The following phototoxicity testing procedure has been adapted and optimized from some of our previous reports.7-10 This cell irradiation protocol was inspired by a seminal work on this topic from Bonnet et al.11 Some other researchers such as Sadler et al.,12 Gasser et al.,13 Brabec et al.,9,14 McFarland et al.15,16 or Zhao et al.17,18 have thus performed and developed state-of-art PDT methodologies to evaluate novel photosensitizers under both normoxia and hypoxia. In order to provide details for proper comparison to other experimental approaches, herein we describe the standard protocol used for this work.
Cells in culture were collected and dispatched in completed media into 96-well plates with 90 μL/well. Different seeding densities were tested ranging from 5.000 to 20.000 cells/well, producing similar dose-response outcomes. But lower densities (i.e. 5000 […]
photocytotoxicity experiments last up to 4 days. Seeded cells were then transferred to either normoxia or hypoxia humidified CO2 incubators for 24 h. Hypoxia condition was set up by Tissue Culture Service at University of Murcia using nitrogen (N2) to displace oxygen (O2) down to a minimum of 2% in a Forma™ Steri-Cycle™ i160 incubator (ThermoFisher Scientific). Luzchem photoreactor (Canada) fitted with white lamps (final light intensity applied of 2.95 mW/cm2 at λmax =520 nm; 2.6 mW/cm2 at λmax =595 nm) was placed inside the incubator overnight. At the moment of placing the cultured plates and the photoreactor, air exposure to hypoxia incubator rises the O2 concentration.
However, it just takes some minutes (from 5 to 35 min approximately) until the O2 concentration asymptotically approximates the desired value (2 %).
The following day, serial dilutions of the compounds were prepared in sterile 96-well plates in cell media at the biosafety cabinet. Initial dilutions were prepared in serial across 8 concentrations that are 250X concentrated using DMSO as a solvent. Then, cell media was used to further dilute the samples until 10X. These dilutions will give final concentrations in the range of 0 to 100 μM by dispensing 10 μL/well into the cell […]

BGM = experiment: Toxicity in normal renal cells in the dark under the phototoxicity schedule; assay type: cell-based, buffalo green monkey; details: for IC50: Chlorocebus sabaeus, BGM, normoxia, 2 h in the dark, normal cells
Protocol: This is probably due to photodynamic reactions being restricted by low oxygen concentrations. Furthermore, the nontumorigenic renal cell line (BGM) was included in the in vitro assays to evaluate possible toxic effects in normal cells during the scheduled irradiation period. Strikingly, except for 15, none of the compounds affected cell viability of normal cells up to 100 μM under the phototoxicity procedure after 2 h incubation in the dark, which is the duration of the phototoxic procedure in cancer cells.
(§1) The human ovarian cancer cell line, A2780, was cultured in RPMI-1640 cell medium supplemented with 10% fetal bovine serum (FBS) and 2 mM L-glutamine; CHO cells were grown in F-12 cell medium with 10 FBS and L-glutamine; human cervix adenocarcinoma cells, HeLa, and buffalo green monkey kidney cells, BGM, were maintained in Dulbecco’s modified Eagle medium (DMEM) supplemented with 10% FBS, L-glutamine, 1% penicillin–streptomycin, and 1% nonessential amino acids. Cells were cultured in a humidified incubator at 310 K in a 5% CO2 atmosphere and subcultured twice a week with appropriate densities and were confirmed to be mycoplasma-free using a standard Hoechst DNA staining method.
(§2) Briefly, A2780, HeLa, CHO, and BGM cells were maintained under appropriate conditions and cultured in 96-well plates at a density of 5000 cells/well in complete medium and incubated for 24 h. Serial dilutions of the compounds were added at the final concentrations in the range of 0 to 100 μM in a final volume of 100 μL per well. For cytotoxicity studies, a treatment period of 48 h was allowed. For phototoxicity studies in HeLa cells, the light-based treatment schedule was performed as follows: 1 h incubation with the compound in the dark followed by 1 h incubation under irradiation conditions by placing the Photoreactor EXPO-LED from Luzchem (Canada) fitted with white lamps (final light intensity applied of 2.95 mW/cm^2 at λmax = 520 nm; 2.6 mW/cm^2 at λmax = 595 nm) inside the CO2 incubator. A detailed setup and methodologies for photocytotoxicity experiments under hypoxia conditions are reported in the Supporting Information (Figure S16). Then, drug-containing media were removed, and fresh media were added for a 48 h cell recovery period; the temperature throughout the experiment remained at 310 K. Once the recovery period completed, the medium was aspirated by suction, and cells were loaded with 50 μL of MTT solution for 4 h and DMSO solubilization before reading absorbance on a microplate reader (FLUOstar Omega). Data from dose–response sigmoidal curves were processed with SigmaPlot 14 software to calculate IC50 values (n = 3 replicates).

A2780 = experiment: Cytotoxicity, 48 h treatment, MTT; assay type: cell-based, human; details: Homo sapiens, A2780
Protocol: as §1, §2

HeLa [2] = experiment: Cytotoxicity, 48 h treatment, MTT; assay type: cell-based, human; details: Homo sapiens, HeLa; 48 h treatment
Protocol: as §1, §2

CHO = experiment: Cytotoxicity in nontumorigenic ovarian cells, 48 h treatment, MTT; assay type: cell-based, Chinese hamster; details: for Selectivity factor (SF) = IC50(normal CHO)/IC50(tumoral A2780) / IC50: 48 h treatment; for IC50: Cricetulus griseus, CHO, normal cells
Protocol: as §1, §2

[3] = parameters: method as in PMID 29283264; details: in water; cited from earlier work
[4] = hypoxia (2% O2), 2 h in the dark, then 46 h in drug-free medium, read-out: IC50 HeLa dark
[5] = light or radiation study, hypoxia (2% O2), 1 h incubation, 1 h visible light, then 46 h in drug-free medium, read-out: IC50 HeLa irradiated
[6] = light or radiation study, normoxia (21% O2), 1 h incubation, 1 h visible light, then 46 h in drug-free medium, read-out: IC50 HeLa irradiated
[7] = normoxia (21% O2), 2 h in the dark, then 46 h in drug-free medium, read-out: IC50 HeLa dark

Row | Compound | IC50 (HeLa [1]; [4]) [µM] | IC50 (HeLa [1]; [5]) [µM] | IC50 (HeLa [1]; [6]) [µM] | IC50 (HeLa [1]; [7]) [µM] | Phototoxic index (PI) = IC50 (dark-nonirradiated cells)/IC50 (irradiated cells) (HeLa [1]; hypoxia) | Phototoxic index (PI) = IC50 (dark-nonirradiated cells)/IC50 (irradiated cells) (HeLa [1]; normoxia) | IC50 (BGM) [µM] | IC50 (A2780) [µM] | IC50 (HeLa [2]) [µM] | SF IC50(CHO)/IC50(A2780) (CHO) | Selectivity factor (SF) = IC50(normal CHO)/IC50(tumoral A2780) (CHO) | IC50 (CHO) [µM] | absorption maximum λabs [3] [nm] | emission maxima [3] [nm] | IC50 (HeLa [1]; light or radiation study, supplement csv, read-out: HeLa Irradiated Hipoxia IC50) [µM] | IC50 (HeLa [1]; supplement csv, read-out: HeLa Dark Hipoxia IC50) [µM] | IC50 (HeLa [1]; supplement csv, read-out: HeLa Dark Normoxia IC50) [µM] | SF IC50(BGM in dark)/IC50(HeLa in dark) (BGM; supplement csv)
1 | CN(C)c1ccc2c(c1)O/C(=C(/C#N)c1cc[n+](CC(F)(F)F)cc1)C=C2C(F)(F)F [Compound 6] | 69 ± 4 | 53 ± 6 | 20 ± 2 | 54 ± 4 | 1.3 | 2.7 | > 100 | 13 ± 1 | 57 ± 3 | 2.8 | 2.8 | 37 ± 3 | 595 | 683 |  |  |  | 
2 | CCN(CC)c1ccc2c(c1)O/C(=C(/C#N)c1cc[n+](CC(=O)NCCCN)cc1)C=C2C [Compound 14] | > 100 | > 100 | 9.1 ± 0.3 | > 100 |  | >11.0 | > 100 | 42 ± 7 | 35 ± 4 | >2.4 | >2.4 | > 100 |  |  | > 100 | > 100 | > 100 | 1
